In paper PMC6120739 (ACS Omega, 2018):
“Also recorded” adds a separate entry of the source.

How the values were obtained:
PARP-1 = PARP-1 (Homo sapiens, UniProt P09874); assay: PARP-1 radioligand binding; conditions: PARP-1 IC50, OVCAR8 cells, [125I]KX1 radioligand, ± SEM, n = 3
UWB1.289 + BRCA1 cells = assay: Cell viability assay; type: cell-based; conditions: for EC50: UWB1289, read-out: UWB1.289 + BRCA1 EC50; for antiproliferative effect in BRCA1-restored UWB1.289, result in words: in contrast to olaparib and AZD2461
recombinant human P-gp = recombinant human P-gp (Homo sapiens, UniProt P08183); assay: Pgp-Glo assay; conditions: 20 µM compound, 1 hr at 37°C, normalized to Na3VO4
UWB1.289 cells = assay: Cell viability assay; conditions: for EC50: UWB1289, read-out: UWB1.289 EC50; for cytotoxicity in BRCA1-null model, result in words: compared with AZD2461 and olaparib

Chain of recombinant human P-gp (P08183 whole entry): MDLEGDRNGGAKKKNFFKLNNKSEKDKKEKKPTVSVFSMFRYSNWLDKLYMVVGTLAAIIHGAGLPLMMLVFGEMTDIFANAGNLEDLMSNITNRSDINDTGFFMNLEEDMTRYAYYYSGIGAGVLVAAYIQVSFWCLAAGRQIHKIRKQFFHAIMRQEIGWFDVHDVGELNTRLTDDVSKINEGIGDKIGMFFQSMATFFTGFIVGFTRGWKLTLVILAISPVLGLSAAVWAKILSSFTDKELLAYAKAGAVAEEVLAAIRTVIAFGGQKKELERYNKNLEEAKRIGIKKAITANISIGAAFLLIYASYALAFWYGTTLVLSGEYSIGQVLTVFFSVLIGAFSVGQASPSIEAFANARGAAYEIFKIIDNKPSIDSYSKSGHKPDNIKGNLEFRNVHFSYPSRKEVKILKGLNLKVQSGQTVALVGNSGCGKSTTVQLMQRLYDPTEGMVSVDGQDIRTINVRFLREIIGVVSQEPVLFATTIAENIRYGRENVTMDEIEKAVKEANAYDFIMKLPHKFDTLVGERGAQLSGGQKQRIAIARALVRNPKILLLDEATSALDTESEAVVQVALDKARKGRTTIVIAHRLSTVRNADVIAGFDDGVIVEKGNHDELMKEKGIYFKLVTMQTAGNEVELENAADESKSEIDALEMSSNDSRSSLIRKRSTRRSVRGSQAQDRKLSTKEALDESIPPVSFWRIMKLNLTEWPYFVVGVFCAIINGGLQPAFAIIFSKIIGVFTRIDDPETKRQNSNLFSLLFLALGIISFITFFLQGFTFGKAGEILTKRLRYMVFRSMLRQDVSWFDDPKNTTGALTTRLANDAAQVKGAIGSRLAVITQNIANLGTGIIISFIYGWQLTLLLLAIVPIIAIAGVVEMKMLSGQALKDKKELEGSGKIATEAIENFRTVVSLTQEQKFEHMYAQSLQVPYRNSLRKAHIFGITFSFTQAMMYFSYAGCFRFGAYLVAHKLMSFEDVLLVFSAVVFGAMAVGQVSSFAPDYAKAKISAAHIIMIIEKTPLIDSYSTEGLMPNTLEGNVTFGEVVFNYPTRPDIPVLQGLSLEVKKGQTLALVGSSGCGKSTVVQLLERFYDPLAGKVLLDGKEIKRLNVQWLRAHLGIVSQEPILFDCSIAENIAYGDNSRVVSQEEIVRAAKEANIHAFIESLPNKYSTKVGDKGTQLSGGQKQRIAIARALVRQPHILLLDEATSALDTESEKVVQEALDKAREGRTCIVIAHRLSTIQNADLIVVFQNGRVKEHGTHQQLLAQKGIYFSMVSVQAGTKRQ
Chain of PARP-1 (P09874 whole entry): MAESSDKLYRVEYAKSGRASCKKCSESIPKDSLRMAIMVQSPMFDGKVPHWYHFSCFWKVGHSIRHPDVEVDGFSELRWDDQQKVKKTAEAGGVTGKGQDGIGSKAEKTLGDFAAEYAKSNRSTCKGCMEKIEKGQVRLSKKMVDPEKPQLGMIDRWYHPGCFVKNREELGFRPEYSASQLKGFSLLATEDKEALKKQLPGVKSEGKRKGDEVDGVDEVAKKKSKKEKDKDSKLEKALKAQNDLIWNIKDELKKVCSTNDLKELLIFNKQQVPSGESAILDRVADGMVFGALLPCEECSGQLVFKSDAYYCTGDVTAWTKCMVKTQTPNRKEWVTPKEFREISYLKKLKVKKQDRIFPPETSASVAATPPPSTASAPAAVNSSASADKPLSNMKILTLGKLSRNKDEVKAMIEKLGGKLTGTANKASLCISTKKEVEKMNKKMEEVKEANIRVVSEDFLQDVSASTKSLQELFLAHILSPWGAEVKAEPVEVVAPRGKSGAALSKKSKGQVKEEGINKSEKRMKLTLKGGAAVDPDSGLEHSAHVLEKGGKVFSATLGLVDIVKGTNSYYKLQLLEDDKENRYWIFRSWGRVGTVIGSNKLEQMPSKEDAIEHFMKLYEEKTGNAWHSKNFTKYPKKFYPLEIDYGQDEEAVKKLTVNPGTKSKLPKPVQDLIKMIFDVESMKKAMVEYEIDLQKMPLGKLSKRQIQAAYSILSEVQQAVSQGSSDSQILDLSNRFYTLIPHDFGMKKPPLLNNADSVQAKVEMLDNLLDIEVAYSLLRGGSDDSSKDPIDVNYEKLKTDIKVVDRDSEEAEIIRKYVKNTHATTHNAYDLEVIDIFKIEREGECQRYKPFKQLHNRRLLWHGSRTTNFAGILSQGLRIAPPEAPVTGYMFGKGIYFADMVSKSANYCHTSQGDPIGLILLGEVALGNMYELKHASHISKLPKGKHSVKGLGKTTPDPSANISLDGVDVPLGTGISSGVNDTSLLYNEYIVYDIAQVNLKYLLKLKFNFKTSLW

Structure (SMILES)	IC50 (PARP-1) [nM]	EC50 (UWB1.289 + BRCA1 cells) [nM]	antiproliferative effect in BRCA1-restored UWB1.289, result in words (UWB1.289 + BRCA1 cells)	P-gp ATPase interaction (luminescence), result in words (recombinant human P-gp)	EC50 (UWB1.289 cells) [nM]	cytotoxicity in BRCA1-null model, result in words (UWB1.289 cells)
COC1CN(C(=O)c2cc(Cc3n[nH]c(=O)c4ccccc34)ccc2F)C1 [Compound 2]	< 10	13400 ± 700	poor antiproliferative effects	increase in luminescence	2120 ± 200	less cytotoxic than both AZD2461 and olaparib
COC1CCN(C(=O)c2cc(Cc3n[nH]c(=O)c4ccccc34)ccc2F)C1 (stereo not drawn) [Compound 3]	< 10	8580 ± 1100	poor antiproliferative effects	increase in luminescence; also recorded: weakest activators of P-gp ATPase; also recorded: least activating agents of P-gp ATPase	1500 ± 400	less cytotoxic than both AZD2461 and olaparib
COC1CCN(C(=O)c2cc(Cc3n[nH]c(=O)c4ccccc34)ccc2F)CC1 [Compound 4, AZD2461, reference compound]	–	2280 ± 300	–	–	890 ± 700	–
COC1CCCN(C(=O)c2cc(Cc3n[nH]c(=O)c4ccccc34)ccc2F)CC1 (stereo not drawn) [Compound 5]	< 10	3490 ± 200	poor antiproliferative effects	increase in luminescence; also recorded: weakest activators of P-gp ATPase	2840 ± 1400	less cytotoxic than both AZD2461 and olaparib
COC1CC(NC(=O)c2cc(Cc3n[nH]c(=O)c4ccccc34)ccc2F)C1 (stereo not drawn) [Compound 6]	–	6620 ± 4300	–	only P-gp substrate in this study	10100 ± 1500	–
CO[C@H]1C[C@H](NC(=O)c2cc(Cc3n[nH]c(=O)c4ccccc34)ccc2F)C1 [Compound 7]	20.8 ± 1.1	2810 ± 1400	–	–	1940 ± 1100	–
CO[C@H]1C[C@@H](NC(=O)c2cc(Cc3n[nH]c(=O)c4ccccc34)ccc2F)C1 [Compound 8]	107 ± 1.1	13900 ± 1100	–	–	4350 ± 1700	–
COC1CCC(NC(=O)c2cc(Cc3n[nH]c(=O)c4ccccc34)ccc2F)C1 (stereo not drawn) [Compound 9]	49.5 ± 1.1	9310 ± 1000	–	poor activator of P-pg ATPase; also recorded: least activating agents of P-gp ATPase	1320 ± 500	–
COC1CCC(NC(=O)c2cc(Cc3n[nH]c(=O)c4ccccc34)ccc2F)CC1 (stereo not drawn) [Compound 10]	226.3 ± 1.1	6160 ± 1300	–	–	2420 ± 900	–
O=C(c1cc(Cc2n[nH]c(=O)c3ccccc23)ccc1F)N1CCN(C(=O)C2CC2)CC1 [olaparib, reference compound]	–	1970 ± 400	–	acts more of a P-gp ATPase activator, than 4	900 ± 500	–
